Results taken from patent publication US20250017914A1, “6-AZA-QUINOLINE DERIVATIVES AND RELATED USES” (Black Diamond Therapeutics, Inc., priority 2021, published 2025).

Target: T1, BaF3 BRAF-KIAA1549 fusion cells (Homo sapiens, UniProt P15056)
T1 construct: The BRAF-KIAA1549 fusion mutant was subcloned into pMXs-IRES-Blasticidin (RTV-016, Cell Biolabs, San Diego, CA); No tag given; Q9HCM3 (UPF0606 protein KIAA1549)
Test: BaF3 BRAF-KIAA1549 fusion cell proliferation assay (CellTiterGlo, 96 hours)
Type: cell-based
How it was run: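 BaF3 cells retrovirally transduced with BRAF-KIAA1549 fusion and blasticidin-selected were plated at 7×10^4 c/well in RPMI, 10% heat-inactivated FBS, 1% L-glutamine, and exposed to compound for 96 hours. Growth was read as ATP content by CellTiterGlo luminescence. IC50 was fitted by Levenberg-Marquardt, normalised to DMSO-treated cells.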

T1 sequence (P15056 whole entry, change not shown, the tested form may be a part): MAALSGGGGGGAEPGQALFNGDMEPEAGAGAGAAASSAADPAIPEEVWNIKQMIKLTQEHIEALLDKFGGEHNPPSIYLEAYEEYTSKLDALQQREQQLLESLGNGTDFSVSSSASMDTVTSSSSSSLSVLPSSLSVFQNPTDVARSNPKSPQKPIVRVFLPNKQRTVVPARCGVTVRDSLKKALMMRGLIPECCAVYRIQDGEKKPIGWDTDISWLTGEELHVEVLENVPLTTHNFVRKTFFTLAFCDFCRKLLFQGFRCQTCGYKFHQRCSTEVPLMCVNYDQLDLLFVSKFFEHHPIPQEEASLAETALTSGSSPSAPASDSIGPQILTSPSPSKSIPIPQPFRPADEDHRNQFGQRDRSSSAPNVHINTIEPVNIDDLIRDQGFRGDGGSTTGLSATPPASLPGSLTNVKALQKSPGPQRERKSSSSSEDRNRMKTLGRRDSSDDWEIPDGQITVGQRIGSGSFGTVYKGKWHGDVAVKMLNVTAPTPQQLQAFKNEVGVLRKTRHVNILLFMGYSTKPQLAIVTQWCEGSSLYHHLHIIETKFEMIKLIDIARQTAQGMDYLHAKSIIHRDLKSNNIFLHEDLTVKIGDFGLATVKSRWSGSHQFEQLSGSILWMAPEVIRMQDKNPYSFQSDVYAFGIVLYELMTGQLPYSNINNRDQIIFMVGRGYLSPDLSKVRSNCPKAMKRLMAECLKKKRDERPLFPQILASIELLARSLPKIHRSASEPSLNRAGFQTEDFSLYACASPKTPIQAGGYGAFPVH

SMILES	GI50 (Table A1)	GI50 (Table A2)
CCC(C)c1ccnc(C(=O)Nc2cnc(C)c(-c3cnc4cc(NC)ncc4c3)c2)c1 (stereo not shown) [Compound 227, 4-(sec-butyl)-N-(6-methyl-5-(7-(methylamino)-1,6-naphthyridin-3-yl)pyridin-3-yl)picolinamide]		20 to 100 nM
CNc1cc2ncc(-c3cc(NC(=O)c4ccnc(C(C)(C)C#N)c4)cnc3C)cc2cn1 [Compound 55, 2-(2-Cyanopropan-2-yl)-N-(6-methyl-5-(7-(methylamino)-1,6-naphthyridin-3-yl)pyridin-3-yl)isonicotinamide]	< 20 nM	
CNc1cc2ncc(-c3cc(NC(=O)c4nccc5c4OCCC5O)cnc3C)cc2cn1 (stereo not shown) [Compound 211, 4-hydroxy-N-(6-methyl-5-(7-(methylamino)-1,6-naphthyridin-3-yl)pyridin-3-yl)-3,4-dihydro-2H-pyrano[2,3-c]pyridine-8-carboxamide]		≥ 500 nM
CNc1cc2ncc(-c3cc(NC(=N)c4cc(C(F)(F)F)ccn4)ccc3C)cc2cn1 [Compound 61, N-(4-Methyl-3-(7-(methylamino)-1,6-naphthyridin-3-yl)phenyl)-4-(trifluoromethyl)picolinimidamide]	100 to 500 nM	
CNc1cc2ncc(-c3cc(NC(=N)c4cc(C(F)(F)F)ccn4)cnc3C)cc2cn1 [Compound 64, N-(6-Methyl-5-(7-(methylamino)-1,6-naphthyridin-3-yl)pyridin-3-yl)-4-(trifluoromethyl)picolinimidamide]	≥ 500 nM	
CNc1cc2ncc(-c3cc(NC(=O)c4cc(C(C)(C)C#N)ccn4)cc(Cl)c3C)cc2cn1 [Compound 48, N-(3-Chloro-4-methyl-5-(7-(methylamino)-1,6-naphthyridin-3-yl)phenyl)-4-(2-cyanopropan-2-yl)picolinamide]	≥ 500 nM	
CNc1cc2ncc(-c3cc(NC(=O)c4cccc5c4CCC5=O)cnc3C)cc2cn1 [Compound 212, N-(6-methyl-5-(7-(methylamino)-1,6-naphthyridin-3-yl)pyridin-3-yl)-1-oxo-2,3-dihydro-1H-indene-4-carboxamide]		≥ 500 nM
CNc1cc2ncc(-c3cc(NC(=O)c4ccnc(C(C)(F)F)c4)ccc3C)cc2cn1 [Compound 9, 2-(1,1-difluoroethyl)-N-(4-methyl-3-(7-(methylamino)-1,6-naphthyridin-3-yl)phenyl)isonicotinamide]	< 20 nM	
CNc1cc2ncc(-c3cc(NC(=O)c4cc(C(C)(C)F)ccn4)ccc3C)cc2cn1 [Compound 13, 4-(2-Fluoropropan-2-yl)-N-(4-methyl-3-(7-(methylamino)-1,6-naphthyridin-3-yl)phenyl)picolinamide]	100 to 500 nM	
CNc1cc2ncc(-c3cc(NC(=O)c4cc(C(F)F)ccn4)ccc3C)cc2cn1 [Compound 11, 4-(Difluoromethyl)-N-(4-methyl-3-(7-(methylamino)-1,6-naphthyridin-3-yl)phenyl)picolinamide]	20 to 100 nM	
CNc1cc2ncc(-c3cc(NC(=O)c4cccc5c4CCC5O)cnc3C)cc2cn1 (stereo not shown) [Compound 219, 1-hydroxy-N-(6-methyl-5-(7-(methylamino)-1,6-naphthyridin-3-yl)pyridin-3-yl)-2,3-dihydro-1H-indene-4-carboxamide]		≥ 500 nM
CNc1cc2ncc(-c3cc(NC(=O)C[C@@H]4C[C@H](C(F)(F)F)CCO4)ccc3C)cc2cn1 (single isomer, unassigned) [Compound 7, N-(4-Methyl-3-(7-(methylamino)-1,6-naphthyridin-3-yl)phenyl)-2-(4-(trifluoromethyl)tetrahydro-2H-pyran-2-yl)acetamide]	< 20 nM	
CNc1cc2ncc(-c3cc(NC(=O)c4ccnc(C(C)(C)C#N)c4)ccc3C)cc2cn1 [Compound 56, 2-(2-Cyanopropan-2-yl)-N-(4-methyl-3-(7-(methylamino)-1,6-naphthyridin-3-yl)phenyl)isonicotinamide]	20 to 100 nM	
CNc1cc2ncc(-c3cc(NC(=O)c4cnn(CC(F)(F)F)c4C)cnc3C)cc2cn1 [Compound 240, 5-methyl-N-(6-methyl-5-(7-(methylamino)-1,6-naphthyridin-3-yl)pyridin-3-yl)-1-(2,2,2-trifluoroethyl)-1H-pyrazole-4-carboxamide]		≥ 500 nM
CNc1cc2ncc(-c3cc(NC(=O)c4ccnc(C(F)(F)F)c4)cnc3C)cc2cn1 [Compound 27, N-(6-Methyl-5-(7-(methylamino)-1,6-naphthyridin-3-yl)pyridin-3-yl)-2-(trifluoromethyl)isonicotinamide]	< 20 nM	
CNc1cc2ncc(-c3cc(NC(=O)c4cnc5n4C[C@H](C)CC5)ccc3C)cc2cn1 (single isomer, unassigned) [Compound 230]		20 to 100 nM
Cc1ncc(NC(=O)c2cc(C(F)(F)F)ccn2)cc1-c1ccc2c3c(ncc2c1)NC(=O)C3 [Compound 274, N-(6-methyl-5-(2-oxo-2,3-dihydro-1H-pyrrolo[2,3-c]isoquinolin-7-yl)pyridin-3-yl)-4-(trifluoromethyl)picolinamide]		< 20 nM
CNc1cc2ncc(-c3cc(NC(=O)c4cc(C(C)(C)C#N)ccn4)c(F)c(F)c3C)cc2cn1 [Compound 51, 4-(2-Cyanopropan-2-yl)-N-(2,3-difluoro-4-methyl-5-(7-(methylamino)-1,6-naphthyridin-3-yl)phenyl)picolinamide]	≥ 500 nM	
CNc1cc2ncc(-c3cc(NC(=O)c4cnc5n4CC(C)CC5)ccc3C)cc2cn1 (stereo not shown) [Compound 204, 6-methyl-N-(4-methyl-3-(7-(methylamino)-1,6-naphthyridin-3-yl)phenyl)-5,6,7,8-tetrahydroimidazo[1,2-a]pyridine-3-carboxamide]		< 20 nM
Cc1ccc(NC(=O)c2ccnc(C(C)(C)F)c2)cc1-c1ccc2c3c(ncc2c1)NC(=O)C3 [Compound 276, 2-(2-fluoropropan-2-yl)-N-(4-methyl-3-(2-oxo-2,3-dihydro-1H-pyrrolo[2,3-c]isoquinolin-7-yl)phenyl)isonicotinamide]		< 20 nM
CNc1cc2ncc(-c3cc(NC(=O)c4n[nH]c5c4CN(C)CC5)cnc3C)cc2cn1 [Compound 244, 5-methyl-N-(6-methyl-5-(7-(methylamino)-1,6-naphthyridin-3-yl)pyridin-3-yl)-4,5,6,7-tetrahydro-1H-pyrazolo[4,3-c]pyridine-3-carboxamide]		≥ 500 nM

Results, then the compound that gave them:

GI50 (Table A1)	GI50 (Table A2)	SMILES
20 to 100 nM		CNc1cc2ncc(-c3cc(NC(=O)c4nccc(C(F)(F)F)c4Cl)cnc3C)cc2cn1 [Compound 26, 3-Chloro-N-(6-methyl-5-(7-(methylamino)-1,6-naphthyridin-3-yl)pyridin-3-yl)-4-(trifluoromethyl)picolinamide]
	100 to 500 nM	CNc1cc2ncc(-c3cc(NC(=O)c4cnc5n4CCCCC5)cnc3C)cc2cn1 [Compound 232, N-(6-methyl-5-(7-(methylamino)-1,6-naphthyridin-3-yl)pyridin-3-yl)-6,7,8,9-tetrahydro-5H-imidazo[1,2-a]azepine-3-carboxamide]
20 to 100 nM		CNc1cc2ncc(-c3cc(C(=O)Nc4cc(C(C)(C)C#N)ccn4)cnc3C)cc2cn1 [Compound 59, N-(4-(2-Cyanopropan-2-yl)pyridin-2-yl)-6-methyl-5-(7-(methylamino)-1,6-naphthyridin-3-yl)nicotinamide]
	≥ 500 nM	CNc1cc2ncc(-c3cc(NC(=O)c4cccc5c4CCC[C@H]5O)cnc3C)cc2cn1 (single isomer, unassigned) [Compound 208]
	100 to 500 nM	CNc1ncc2cc(-c3cc(NC(=O)c4ccnc(C5(F)CC5)c4)ccc3C)cnc2c1Cl [Compound 269, N-[3-[8-chloro-7-(methylamino)-1,6-naphthyridin-3-yl]-4-methyl-phenyl]-2-(1-fluorocyclopropyl)pyridine-4-carboxamide]
20 to 100 nM		CNc1cc2ncc(-c3cc(NC(=O)C[C@@H]4C[C@H](C(F)(F)F)CCO4)cnc3C)cc2cn1 (single isomer, unassigned) [Compound 35]
	20 to 100 nM	CNc1cc2ncc(-c3cc(NC(=O)c4ccnc(C5(F)CC5)c4)c(F)cc3C)cc2cn1 [Compound 221, N-(2-fluoro-4-methyl-5-(7-(methylamino)-1,6-naphthyridin-3-yl)phenyl)-2-(1-fluorocyclopropyl)isonicotinamide]
< 20 nM		CNc1cc2ncc(-c3cc(NC(=O)c4ccnc(C(C)(C)F)c4)cnc3C)cc2cn1 [Compound 24, 2-(2-Fluoropropan-2-yl)-N-(6-methyl-5-(7-(methylamino)-1,6-naphthyridin-3-yl)pyridin-3-yl)isonicotinamide]
	100 to 500 nM	CNc1cc2ncc(-c3cc(NC(=O)N(C)c4ccnc(C(F)F)c4)cnc3C)cc2cn1 [Compound 190, 1-(2-(difluoromethyl)pyridin-4-yl)-1-methyl-3-(6-methyl-5-(7-(methylamino)-1,6-naphthyridin-3-yl)pyridin-3-yl)urea]
	≥ 500 nM	CNc1cc2ncc(-c3cc(C(=O)Nc4cc(C(C)(C)C#N)ccn4)cnn3)cc2cn1 [Compound 213, N-(4-(2-cyanopropan-2-yl)pyridin-2-yl)-6-(7-(methylamino)-1,6-naphthyridin-3-yl)pyridazine-4-carboxamide]
20 to 100 nM		CNc1cc2ncc(-c3cc(NC(=O)c4cc(C(C)(C)C#N)ccn4)c(F)cc3F)cc2cn1 [Compound 43, 4-(2-Cyanopropan-2-yl)-N-(2,4-difluoro-5-(7-(methylamino)-1,6-naphthyridin-3-yl)phenyl)picolinamide]
	≥ 500 nM	CNCC(F)(F)c1cccc(C(=O)Nc2cnc(C)c(-c3cnc4cc(NC)ncc4c3)c2)n1 [Compound 250, 6-(1,1-difluoro-2-(methylamino)ethyl)-N-(6-methyl-5-(7-(methylamino)-1,6-naphthyridin-3-yl)pyridin-3-yl)picolinamide]
20 to 100 nM		CNc1cc2ncc(-c3cc(NC(=O)c4cc(C(C)(C)C#N)ccn4)ccc3Cl)cc2cn1 [Compound 41, N-(4-Chloro-3-(7-(methylamino)-1,6-naphthyridin-3-yl)phenyl)-4-(2-cyanopropan-2-yl)picolinamide]
